Values quoted from earlier work in US20190060287A1 (ADARE PHARMACEUTICALS, INC., priority 2017, published 2019).
Where two headings read alike, the source gives them in different places.

Tests used:
[1] = multiple dose controlled clinical studies

- patients reporting that they had been drowsy during the 6 hour study (single dose 8 mg): 76%
- patients reporting that they had been drowsy during the 6 hour study (single dose 16 mg): 92%
SMILES: Clc1ccc2nsnc2c1NC1=NCCN1 [tizanidine, Tizanidine]
- patients reporting sedation as a secondary event ([1]; patients receiving any dose of tizanidine): 48%
- cases in which the sedation was rated as severe ([1]; share of the sedation cases): 10%
